In patent publication US10960007B2, “Pharmacologically active aryl-substituted pyrazolo[1,5-a]pyrimidine derivatives” (RICHTER GEDEON NYRT., priority 2017, dated 2021):
Where two headings read alike, the source gives them in different places.

Tests used:
GABAB receptor [1] = molecular target: T1, GABAB receptor (Homo sapiens, UniProt O75899+Q9UBS5); details: compounds of Faghih et al., US 2016/0304527 A1; cited from earlier work
GABAB receptor [2] = molecular target: T2, GABAB receptor (Rattus norvegicus, UniProt O88871+Q9Z0U4); test: In vitro [35S]GTPγS binding assay in rat cortical membranes; assay type: biochemical
T2 construct: from tissue; host or cells: rat brain cortex membranes
T2 sequence (O88871 41-940): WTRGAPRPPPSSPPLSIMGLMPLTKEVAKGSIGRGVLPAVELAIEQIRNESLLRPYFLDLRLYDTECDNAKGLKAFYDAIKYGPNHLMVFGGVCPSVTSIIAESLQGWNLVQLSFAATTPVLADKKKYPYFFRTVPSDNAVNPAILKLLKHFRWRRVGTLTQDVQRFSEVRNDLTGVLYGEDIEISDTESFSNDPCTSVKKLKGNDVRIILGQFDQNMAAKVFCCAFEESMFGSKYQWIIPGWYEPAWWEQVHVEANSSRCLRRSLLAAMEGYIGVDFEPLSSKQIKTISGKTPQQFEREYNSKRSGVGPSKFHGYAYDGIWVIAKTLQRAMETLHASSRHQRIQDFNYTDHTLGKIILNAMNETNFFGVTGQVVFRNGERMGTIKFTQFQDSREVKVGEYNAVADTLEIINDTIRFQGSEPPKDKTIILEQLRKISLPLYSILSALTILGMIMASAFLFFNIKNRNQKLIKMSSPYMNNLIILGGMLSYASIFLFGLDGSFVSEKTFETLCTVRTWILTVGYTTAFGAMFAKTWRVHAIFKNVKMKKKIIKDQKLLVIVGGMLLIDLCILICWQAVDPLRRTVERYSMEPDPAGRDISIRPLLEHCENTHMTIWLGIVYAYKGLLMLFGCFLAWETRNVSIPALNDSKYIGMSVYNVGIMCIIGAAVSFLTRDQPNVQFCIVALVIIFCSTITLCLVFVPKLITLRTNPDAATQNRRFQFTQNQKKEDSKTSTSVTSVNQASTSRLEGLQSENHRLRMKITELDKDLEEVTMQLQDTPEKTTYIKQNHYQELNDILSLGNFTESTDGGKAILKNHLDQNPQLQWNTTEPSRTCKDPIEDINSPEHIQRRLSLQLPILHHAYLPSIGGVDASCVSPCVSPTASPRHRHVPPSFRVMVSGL
T2 sequence (Q9Z0U4 17-960 limits assumed): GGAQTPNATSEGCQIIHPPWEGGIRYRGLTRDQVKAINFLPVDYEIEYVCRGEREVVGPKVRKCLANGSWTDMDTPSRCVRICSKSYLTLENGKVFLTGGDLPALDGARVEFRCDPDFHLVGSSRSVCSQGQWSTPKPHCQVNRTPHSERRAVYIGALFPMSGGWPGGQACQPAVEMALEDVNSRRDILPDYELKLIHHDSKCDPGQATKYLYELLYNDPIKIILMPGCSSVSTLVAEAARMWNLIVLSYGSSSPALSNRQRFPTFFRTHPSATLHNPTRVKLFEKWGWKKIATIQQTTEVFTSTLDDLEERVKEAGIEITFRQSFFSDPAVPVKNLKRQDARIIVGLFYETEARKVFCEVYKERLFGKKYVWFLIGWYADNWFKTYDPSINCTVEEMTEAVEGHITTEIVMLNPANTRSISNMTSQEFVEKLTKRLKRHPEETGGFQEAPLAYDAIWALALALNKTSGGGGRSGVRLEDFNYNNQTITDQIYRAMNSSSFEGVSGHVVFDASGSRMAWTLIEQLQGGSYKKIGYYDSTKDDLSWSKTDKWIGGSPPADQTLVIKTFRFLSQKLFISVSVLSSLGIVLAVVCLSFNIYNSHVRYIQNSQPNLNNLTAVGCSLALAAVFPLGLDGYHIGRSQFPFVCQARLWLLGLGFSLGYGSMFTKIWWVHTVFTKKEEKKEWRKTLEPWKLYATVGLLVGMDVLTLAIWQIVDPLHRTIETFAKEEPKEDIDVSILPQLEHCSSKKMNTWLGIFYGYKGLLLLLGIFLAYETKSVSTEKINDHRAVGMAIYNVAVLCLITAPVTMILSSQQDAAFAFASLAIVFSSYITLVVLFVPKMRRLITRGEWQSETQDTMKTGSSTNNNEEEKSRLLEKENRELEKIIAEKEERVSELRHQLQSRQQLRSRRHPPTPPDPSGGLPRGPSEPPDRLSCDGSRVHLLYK
Experimental: In Vitro [^35S]GTPγS Binding Assay in Rat Cortical Membranes
Cortices of freshly harvested rat brains were dissected on an ice-cold surface and homogenized by a glass Dounce homogeniser immediately in ice-cold buffer containing 50 mM Tris, 5 mM MgCl2 and 1 mM EDTA (pH=7.6). Tissue homogenates were centrifuged at 40000 g for 15 min at 4° C. Membrane pellets were resuspended in the same buffer and membranes were incubated for 10 min at 30° C. in a shaking water bath to eliminate endogenous GABA. Homogenates were centrifuged again under the same conditions. The final pellets were resuspended in ice-cold buffer (pH=7.6) containing 50 mM Tris, 100 mM NaCl, 7 mM MgCl2, 1 mM EDTA and 1 mM dithiotreithol (DTT) to yield a concentration of 20 mg tissue weight/ml and frozen at −70° C. until use. The assay was done in a buffer containing 50 mM Tris (pH=7.4), 100 mM NaCl, 7 mM MgCl2, 1 mM EDTA and 1 mM DTT. Each assay tube contained 150 μL GDP (in a final concentration of 50 μM), 100 μL ligand and 125 μL of the membrane suspension (250 μg tissue/tube). The assay tubes were preincubated for 10 min at 30° C. to assure equilibrium. Nonspecific binding was determined in the presence of 10 μM GTPγS; basal binding was determined in the presence of buffer only. After addition of […] [^35S]GTPγS in a volume of 25 μL to the tubes, membranes were incubated for an additional 60 min at 30° C. The assay was terminated by rapid filtration through Packard UniFilter GF/B using a Packard harvester and washed four times with 1 ml ice-cold buffer. After drying the filters at 40° C. for 1 h, 40 μL Microscint (Packard) was added to the filters and radioactivity of the filters was determined by a TopCount NXT (PerkinElmer, Waltham, Mass.; Alper and Nelson, Eur. J. Pharmacol. 1998, 343, 303-312; Rinken et al, Biochem. Pharmacol. 1999, 57, 155-162). Data thus gathered were used to determine PAM EC50 values for each compound as primary in vitro activity end point.

[3] = Plasma and brain exposure after USV measurement; assay type: in vivo; details: rat, per os, about 75 min after treatment, formulation Tween
Experimental: (§1) Under stressful conditions, adult rats emit 22 kHz ultrasounds that can be reduced by various pharmacological treatments (De Vry et al, Eur. J. Pharmacol. 1993, 249, 331-339; Sanchez, Eur. J. Pharmacol. 2003, 463, 133-143). […] Therefore, a foot shock-induced vocalization paradigm in adult rats was used to assess in vivo efficacy of centrally acting GABAB receptor ligands. Behavioral measurements were carried out on male Wistar rats (200-250 g, Toxicoop, Hungary). Rats were housed in groups of four in plastic cages with a wire grid top in a temperature and light-controlled laboratory animal care unit (22±2° C., 12-h light/dark cycle, lights on at 6:00 AM) with ad libitum access to commercial pellet rat food and tap water. Investigations were approved by the Local Ethical Committee of Gedeon Richter Plc. and were carried out in strict compliance with the European Directive 2010/63/EU regarding the care and use of laboratory animals for experimental procedures and all efforts were made to minimize the number of animals as well as their suffering. In order to evoke emission of ultrasounds, animals were footshocked after a habituation period of 30 s (6 shocks, 1 s, 0.8 mA each, inter-shock interval 10 s) in a sound attenuated shocking chamber (Experimetria, 40×40×80 cm). […] Vocalizations were measured right after the last footshock for 10 min with a Metris Sonotrack system and the total time of vocalizations was registered. Vocalization of parallel vehicle treated animals was considered as control value and inhibition percent was calculated for each compound. At approximately 75 min after treatment and behavioral measurements, blood and brain samples were harvested in order to determine exposures associated with in vivo activity.

adult rats = test: Foot shock-induced ultrasonic vocalization (USV) in adult rats; assay type: in vivo, rat; details: Rattus norvegicus, po; 10 mg/kg per os, 1 h before shocking, male Wistar rats
Experimental: Foot Shock-Induced Ultrasonic Vocalization (USV) in Adult Rats
as §1

GABAB receptor [4] = molecular target: T1, GABAB receptor; details: Perdona et al, Neuropharmacology 2011; read-out: EC50, positive modulation of EC20 GABA-evoked [35S]GTPγS binding signal; cited from earlier work
mice = details: cited from earlier work
rats = details: significance only at high doses (30 and 100 mg/kg); cited from earlier work
[5] = rat conventional liver microsomes; cited from earlier work
[6] = human conventional liver microsomes; cited from earlier work
[7] = mouse conventional liver microsomes; cited from earlier work
[8] = [35S]GTPγS binding, rat cortical membranes, read-out: In vitro PAM potency (PAM EC50)

T1 sequence (O75899 42-941): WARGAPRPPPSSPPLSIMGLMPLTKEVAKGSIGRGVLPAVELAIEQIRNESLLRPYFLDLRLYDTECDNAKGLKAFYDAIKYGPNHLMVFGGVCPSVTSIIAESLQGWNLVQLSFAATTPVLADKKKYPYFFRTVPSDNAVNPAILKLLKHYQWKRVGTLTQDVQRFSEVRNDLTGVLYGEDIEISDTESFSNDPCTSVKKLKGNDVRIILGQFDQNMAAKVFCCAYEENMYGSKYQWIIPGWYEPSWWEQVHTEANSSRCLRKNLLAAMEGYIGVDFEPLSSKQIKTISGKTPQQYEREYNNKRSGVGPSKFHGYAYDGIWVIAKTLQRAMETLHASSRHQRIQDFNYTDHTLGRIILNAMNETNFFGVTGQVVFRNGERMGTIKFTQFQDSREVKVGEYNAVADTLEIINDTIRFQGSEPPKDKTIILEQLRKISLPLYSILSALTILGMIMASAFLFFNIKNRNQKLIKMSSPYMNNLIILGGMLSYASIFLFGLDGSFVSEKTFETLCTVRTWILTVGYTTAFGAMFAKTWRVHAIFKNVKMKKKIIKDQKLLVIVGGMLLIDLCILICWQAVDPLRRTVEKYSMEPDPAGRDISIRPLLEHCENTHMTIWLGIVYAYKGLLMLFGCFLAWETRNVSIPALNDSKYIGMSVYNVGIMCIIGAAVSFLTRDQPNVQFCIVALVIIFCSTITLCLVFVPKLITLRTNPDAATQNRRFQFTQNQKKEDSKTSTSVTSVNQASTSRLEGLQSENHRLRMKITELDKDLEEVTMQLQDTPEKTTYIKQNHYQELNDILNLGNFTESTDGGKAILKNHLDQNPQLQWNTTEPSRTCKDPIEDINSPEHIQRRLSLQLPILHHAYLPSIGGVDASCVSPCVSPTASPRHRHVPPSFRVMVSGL
T1 sequence (Q9UBS5 15-961 limits assumed): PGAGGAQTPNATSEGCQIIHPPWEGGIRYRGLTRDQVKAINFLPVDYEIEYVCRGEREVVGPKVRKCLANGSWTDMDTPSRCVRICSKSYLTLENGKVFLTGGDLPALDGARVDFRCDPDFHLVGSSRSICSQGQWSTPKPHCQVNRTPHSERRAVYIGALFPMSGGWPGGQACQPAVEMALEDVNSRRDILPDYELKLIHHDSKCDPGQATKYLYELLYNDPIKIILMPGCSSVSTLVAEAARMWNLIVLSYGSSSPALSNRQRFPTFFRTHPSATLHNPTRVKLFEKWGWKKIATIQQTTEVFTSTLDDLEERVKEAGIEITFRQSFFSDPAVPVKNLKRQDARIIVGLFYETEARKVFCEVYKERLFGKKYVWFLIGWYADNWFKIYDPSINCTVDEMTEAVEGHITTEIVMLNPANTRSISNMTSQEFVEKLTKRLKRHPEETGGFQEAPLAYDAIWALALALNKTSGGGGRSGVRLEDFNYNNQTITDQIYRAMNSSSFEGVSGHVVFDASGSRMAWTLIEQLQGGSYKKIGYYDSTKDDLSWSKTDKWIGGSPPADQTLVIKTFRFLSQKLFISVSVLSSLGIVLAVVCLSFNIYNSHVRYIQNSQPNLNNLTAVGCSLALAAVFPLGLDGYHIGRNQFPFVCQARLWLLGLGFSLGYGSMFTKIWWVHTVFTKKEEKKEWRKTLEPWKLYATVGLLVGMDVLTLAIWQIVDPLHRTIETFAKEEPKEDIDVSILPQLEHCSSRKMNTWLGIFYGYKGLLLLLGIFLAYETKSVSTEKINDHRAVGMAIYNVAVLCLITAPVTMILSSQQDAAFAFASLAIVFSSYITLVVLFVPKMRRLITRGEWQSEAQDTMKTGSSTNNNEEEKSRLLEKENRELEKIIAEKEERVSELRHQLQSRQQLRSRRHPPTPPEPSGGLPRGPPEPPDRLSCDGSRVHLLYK

| EC50 (GABAB receptor [2]; [8]) [nM] | Brain exposure at 1 mg/kg [3] [ng/g] | Plasma exposure at 1 mg/kg [3] [ng/mL] | SMILES | inhibition in vivo at 10 mg/kg (adult rats) [%] | also measured |
| --- | --- | --- | --- | --- | --- |
|  |  |  | CCC(c1ccc(Cl)cc1)c1cc2nc(C)cc(N3CCCCC3CCO)n2n1 (stereo not shown) [Example 3-1] |  | Binding potency (in words) (GABAB receptor [1]): nanomolar |
| 10 to 100 | 1326 | 1453 | CC[C@]1(C(=O)O)CCCN(c2c(C(C)C)c(C)nc3cc(-c4ccc(C(F)(F)F)cc4)nn23)C1 [Example 6, (3S)-3-Ethyl-1-[5-methyl-6-(propan-2-yl)-2-[4-(trifluoromethyl)phenyl]pyrazolo[1,5-a]pyrimidin-7-yl]piperidine-3-carboxylic acid] | 90 |  |
| 10 to 100 | 184 | 222 | Cc1nc2cc(-c3ccc(C(F)(F)F)cc3)nn2c(N2CCC[C@@](C(=O)O)(C(C)C)C2)c1C(C)C [Example 28] | 35 |  |
|  |  |  | Cc1cc(N2CCCCC2CCO)n2nc(-c3ccc(Cl)cc3)cc2n1 (stereo not shown) [CMPPE, 2-{1-[2-(4-chlorophenyl)-5-methylpyrazolo[1,5-a]pyrimidin-7-yl]-2-piperidinyl}ethanol] |  | EC50 (GABAB receptor [4]): 2570 nM; ED50, potentiation of baclofen-induced muscle relaxation (mice): 53.8 mg/kg; EC50 (GABAB receptor [2]; applicant's test system, read-out: EC50 in our in vitro [35S]GTPγS test system): 611 nM; Efficacy in food consumption test (rats): mild efficacy; Clint [5]: 0.31±0.07 mL/min/g liver; Clint [6]: 0.19±0.02 mL/min/g liver; Clint [7]: 1.18±0.4 mL/min/g liver |
